For 1 molecule, Ki results are on record in BindingDB's records for doi:10.1016/S0960-894X(01)80741-1 (1993).

A short description of this experiment: Compound was tested for inhibitory activity against carboxypeptidase A.

On to `O=C(O)[C@@H](CS)Cc1ccccc1` [(S)-2-Mercaptomethyl-3-phenyl-propionic acid], for which affinity was put at a Ki of 7.8 nM.
